Patent US20120302566A1, “INDANYLOXYDIHYDROBENZOFURANYLACETIC ACIDS” (BOEHRINGER INGELHEIM INTERNATIONAL GMBH, priority 2010, published 2012)

Biological target: human GPR40 receptor (Homo sapiens, UniProt O14842)
Test: IP1 accumulation measurements using the IPOne assay system
Format: cell-based
Details: IP1 accumulation (IPOne HTRF), 1 hour stimulation; 1321N1 cells stably expressing human GPR40; read-out: EC50 values on GPR40 determined as described in (B)
Description: (B) IP1 accumulation measurements using the IPOne assay system—1321N1 cells stably expressing human GPR40 receptor (Euroscreen, Belgium) were seeded 24 h before the assay in black clear-bottom collagen-coated 384-well plates in culture medium containing 10% FCS, 1% Na-Pyruvate and 400 μg/mL G418. IP1 is assayed according to the Manufacturer's description (Cisbio Bioassays, France). In brief, the assay is started by substitution of the culture medium by stimulation buffer (Hepes 10 mM, CaCl2 1 mM, MgCl2 0.5 mM, KCl 4.2 mM, NaCl 146 mM and glucose 5.5 mM, pH 7.4) without LiCl. Cells are stimulated for 1 hour at 37°, 10% CO2 by addition of the compounds that were diluted in stimulation buffer containing LiCl yielding a final LiCl concentration of 50 mM. Assays are stopped by adding HTRF-conjugates (IP1-d2 and Anti-IP1 cryptate Tb) and lysis buffer, provided by the manufacturer. After an incubation time of 1 hour at room temperature plates are measured using an EnVision™, Perkin Elmer.

human GPR40 receptor, sequence (O14842 whole entry): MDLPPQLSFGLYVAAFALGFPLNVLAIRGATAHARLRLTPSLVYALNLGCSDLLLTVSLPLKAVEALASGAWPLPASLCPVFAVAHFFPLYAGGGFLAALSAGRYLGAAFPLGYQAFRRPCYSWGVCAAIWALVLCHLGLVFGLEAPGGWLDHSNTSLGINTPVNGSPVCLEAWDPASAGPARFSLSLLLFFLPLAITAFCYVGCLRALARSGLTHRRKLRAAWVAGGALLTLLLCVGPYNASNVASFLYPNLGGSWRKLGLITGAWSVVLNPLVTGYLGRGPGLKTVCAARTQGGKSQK

Point of comparison: `CO[C@@H](c1cccc2c1CC[C@H]2Oc1ccc2c(c1)OC[C@H]2CC(=O)O)C(C)(C)C` (single isomer, unassigned) [Example 28, {(S)-6-[(R)-4-((R)*-1-Methoxy-2,2-dimethyl-propyl)-indan-1-yloxy]-2,3-dihydro-benzofuran-3-yl}-acetic acid], EC50 25 nM. Against it:
- Cc1cc(=O)n(C)c(C)c1-c1cccc2c1CC[C@H]2Oc1ccc2c(c1)OC[C@H]2CC(=O)O [Example 63, {(S)-6-[(R)-4-(1,2,4-Trimethyl-6-oxo-1,6-dihydro-pyridin-3-yl)-indan-1-yloxy]-2,3-dihydro-benzofuran-3-yl}-acetic acid] — 130-fold higher, 3150 nM
- CC(C)c1ccccc1-c1ccc2c(c1)CC[C@H]2Oc1ccc2c(c1)OC[C@H]2CC(=O)O [Example 54, {(S)-6-[(R)-5-(2-Isopropyl-phenyl)-indan-1-yloxy]-2,3-dihydro-benzofuran-3-yl}-acetic acid] — 10-fold higher, 258 nM
- O=C(O)C[C@@H]1COc2cc(O[C@@H]3CCc4c(-c5cccnc5C(F)(F)F)cccc43)ccc21 [Example 73, {(S)-6-[(R)-4-(2-Trifluoromethyl-pyridin-3-yl)-indan-1-yloxy]-2,3-dihydro-benzofuran-3-yl}-acetic acid] — 110-fold higher, 2720 nM
- CC(C)c1cccc2c1CC[C@H]2Oc1ccc2c(c1)OC[C@H]2CC(=O)O [Example 32, {(S)-6-[(R)-4-Isopropyl-indan-1-yloxy]-2,3-dihydro-benzofuran-3-yl}-acetic acid] — 3.9-fold higher, 98 nM
- COc1ccc(C(F)(F)F)c(-c2cccc3c2CC[C@H]3Oc2ccc3c(c2)OC[C@H]3CC(=O)O)n1 [Example 91, {(S)-6-[(R)-4-(6-Methoxy-3-trifluoromethyl-pyridin-2-yl)-indan-1-yloxy]-2,3-dihydro-benzofuran-3-yl}-acetic acid] — 2.8-fold higher, 69 nM
- CO[C@H](c1cccc2c1CC[C@H]2Oc1ccc2c(c1)OC[C@H]2CC(=O)O)C(F)(F)F (single isomer, unassigned) [Example 38, {(S)-6-[(R)-4-((R)*-2,2,2-Trifluoro-1-methoxy-ethyl)-indan-1-yloxy]-2,3-dihydro-benzofuran-3-yl}-acetic acid] — 5.2-fold higher, 131 nM
- O=C(O)C[C@@H]1COc2cc(O[C@H]3CCc4ccc(Br)cc43)ccc21 [Example 55, {(S)-6-[(S)-6-Bromo-indan-1-yloxy]-2,3-dihydro-benzofuran-3-yl}-acetic acid] — 120-fold higher, 2910 nM
- Cc1cccc(C)c1-c1ccc2c(c1)CC[C@H]2Oc1ccc2c(c1)OC[C@H]2CC(=O)O [Example 52, {(S)-6-[(R)-5-(2,6-Dimethyl-phenyl)-indan-1-yloxy]-2,3-dihydro-benzofuran-3-yl}-acetic acid] — 4.5-fold higher, 113 nM
- CC(O)(CC1CCOCC1)c1cccc2c1CC[C@H]2Oc1ccc2c(c1)OC[C@H]2CC(=O)O (stereo partly drawn) [Example 83, ((S)-6-{(R)-4-[1-Hydroxy-1-methyl-2-(tetrahydro-pyran-4-yl)-ethyl]-indan-1-yloxy}-2,3-dihydro-benzofuran-3-yl)-acetic acid] — 16-fold higher, 392 nM
- Cc1nccnc1-c1cccc2c1CC[C@H]2Oc1ccc2c(c1)OC[C@H]2CC(=O)O [Example 99, {(S)-6-[(R)-4-(3-Methyl-pyrazin-2-yl)-indan-1-yloxy]-2,3-dihydro-benzofuran-3-yl}-acetic acid] — 130-fold higher, 3270 nM
- CC1(C)CCCO[C@@H]1c1cccc2c1CC[C@H]2Oc1ccc2c(c1)OC[C@H]2CC(=O)O (single isomer, unassigned) [Example 66] — 3.2-fold higher, 80 nM
- O=C(O)C[C@@H]1COc2cc(O[C@@H]3CCc4ccc(C(F)(F)F)cc43)ccc21 [Example 19, {(S)-6-[(R)-6-Trifluoromethyl-indan-1-yloxy]-2,3-dihydro-benzofuran-3-yl}-acetic acid] — 210-fold higher, 5190 nM
- O=C(O)C[C@@H]1COc2cc(O[C@@H]3CCc4c(C5CC5)cccc43)ccc21 [Example 31, {(S)-6-[(R)-4-Cyclopropyl-indan-1-yloxy]-2,3-dihydro-benzofuran-3-yl}-acetic acid] — 6.7-fold higher, 168 nM
- COc1cc(-c2cccc3c2CC[C@H]3Oc2ccc3c(c2)OC[C@H]3CC(=O)O)c(F)cn1 [Example 68, {(S)-6-[(R)-4-(5-Fluoro-2-methoxy-pyridin-4-yl)-indan-1-yloxy]-2,3-dihydro-benzofuran-3-yl}-acetic acid] — 14-fold higher, 359 nM
- Cc1ncnc(C)c1-c1cccc2c1CC[C@H]2Oc1ccc2c(c1)OC[C@H]2CC(=O)O [Example 86, {(S)-6-[(R)-4-(4,6-Dimethyl-pyrimidin-5-yl)-indan-1-yloxy]-2,3-dihydro-benzofuran-3-yl}-acetic acid] — 17-fold higher, 414 nM
- O=C(O)C[C@@H]1COc2cc(O[C@@H]3CCc4c3cccc4-n3ccccc3=O)ccc21 [Example 51, {(S)-6-[(R)-4-(2-Oxo-2H-pyridin-1-yl)-indan-1-yloxy]-2,3-dihydro-benzofuran-3-yl}-acetic acid] — 390-fold higher, 9670 nM
- O=C(O)C[C@@H]1COc2cc(O[C@@H]3CCc4c(-c5ccccc5C(F)(F)F)cccc43)ccc21 [Example 69, {(S)-6-[(R)-4-(2-Trifluoromethyl-phenyl)-indan-1-yloxy]-2,3-dihydro-benzofuran-3-yl}-acetic acid] — 3.5-fold higher, 88 nM
- CC(C)c1ccccc1-c1cccc2c1CC[C@H]2Oc1ccc2c(c1)OC[C@H]2CC(=O)O [Example 35, {(S)-6-[(R)-4-(2-Isopropyl-phenyl)-indan-1-yloxy]-2,3-dihydro-benzofuran-3-yl}-acetic acid] — 6.2-fold lower, 4 nM
- Cc1cccc(C)c1-c1ccc2c(c1)[C@@H](Oc1ccc3c(c1)OC[C@H]3CC(=O)O)CC2 [Example 53, {(S)-6-[(S)-6-(2,6-Dimethyl-phenyl)-indan-1-yloxy]-2,3-dihydro-benzofuran-3-yl}-acetic acid] — 8.4-fold higher, 211 nM
- CO[C@H](c1cccc2c1CC[C@H]2Oc1ccc2c(c1)OC[C@H]2CC(=O)O)C(C)(C)C (single isomer, unassigned) [Example 29, {(S)-6-[(R)-4-((S)*-1-Methoxy-2,2-dimethyl-propyl)-indan-1-yloxy]-2,3-dihydro-benzofuran-3-yl}-acetic acid] — 1.8-fold lower, 14 nM
- COc1cc(C)c(-c2cccc3c2CC[C@H]3Oc2ccc3c(c2)OC[C@H]3CC(=O)O)c(C)n1 [Example 64, {(S)-6-[(R)-4-(6-Methoxy-2,4-dimethyl-pyridin-3-yl)-indan-1-yloxy]-2,3-dihydro-benzofuran-3-yl}-acetic acid] — 8.5-fold higher, 213 nM
- COc1ccc(C)c(-c2cccc3c2CC[C@H]3Oc2ccc3c(c2)OC[C@H]3CC(=O)O)c1 [Example 71, {(S)-6-[(R)-4-(5-Methoxy-2-methyl-phenyl)-indan-1-yloxy]-2,3-dihydro-benzofuran-3-yl}-acetic acid] — 2.8-fold higher, 71 nM
- O=C(O)C[C@@H]1COc2cc(O[C@@H]3CCc4c3cccc4C(F)(F)C(F)(F)F)ccc21 [Example 101, {(S)-6-[(R)-4-Pentafluoroethyl-indan-1-yloxy]-2,3-dihydro-benzofuran-3-yl}-acetic acid] — the same, 25 nM
- O=C(O)C[C@@H]1COc2cc(O[C@@H]3CCc4c(-c5c(Cl)cccc5Cl)cccc43)ccc21 [Example 88, {(S)-6-[(R)-4-(2,6-Dichloro-phenyl)-indan-1-yloxy]-2,3-dihydro-benzofuran-3-yl}-acetic acid] — within 1.5-fold, 28 nM
- O=C(O)C[C@@H]1COc2cc(O[C@@H]3CCc4cccc(C(F)(F)F)c43)ccc21 [Example 23, {(S)-6-[(R)-7-Trifluoromethyl-indan-1-yloxy]-2,3-dihydro-benzofuran-3-yl}-acetic acid] — 360-fold higher, 9120 nM
- Cc1ccnc(C)c1-c1cccc2c1CC[C@H]2Oc1ccc2c(c1)OC[C@H]2CC(=O)O [Example 93, {(S)-6-[(R)-4-(2,4-Dimethyl-pyridin-3-yl)-indan-1-yloxy]-2,3-dihydro-benzofuran-3-yl}-acetic acid] — 2.4-fold higher, 61 nM
- CC(C)(C#N)c1cccc2c1CC[C@H]2Oc1ccc2c(c1)OC[C@H]2CC(=O)O [Example 97, {(S)-6-[(R)-4-(Cyano-dimethyl-methyl)-indan-1-yloxy]-2,3-dihydro-benzofuran-3-yl}-acetic acid] — 6.8-fold higher, 171 nM
- C=CCCC(C)(O)c1cccc2c1CC[C@H]2Oc1ccc2c(c1)OC[C@H]2CC(=O)O (stereo partly drawn) [Example 82, {(S)-6-[(R)-4-(1-Hydroxy-1-methyl-pent-4-enyl)-indan-1-yloxy]-2,3-dihydro-benzofuran-3-yl}-acetic acid] — 130-fold higher, 3350 nM
- O=C(O)C[C@@H]1COc2cc(O[C@@H]3CCc4c3ccc(F)c4F)ccc21 [Example 37, {(S)-6-[(R)-4,5-Difluoro-indan-1-yloxy]-2,3-dihydro-benzofuran-3-yl}-acetic acid] — 3.1-fold higher, 78 nM
- CC1(C)CCCO[C@H]1c1cccc2c1CC[C@H]2Oc1ccc2c(c1)OC[C@H]2CC(=O)O (single isomer, unassigned) [Example 67] — 7-fold higher, 176 nM
- CC1OC(c2cccc3c2CC[C@H]3Oc2ccc3c(c2)OC[C@H]3CC(=O)O)C1(C)C (single isomer, unassigned) [Example 42] — 5.2-fold higher, 131 nM
- CC(O)(c1cccc2c1CC[C@H]2Oc1ccc2c(c1)OC[C@H]2CC(=O)O)C(F)(F)F (stereo partly drawn) [Example 89, {(S)-6-[(R)-4-(2,2,2-Trifluoro-1-hydroxy-1-methyl-ethyl)-indan-1-yloxy]-2,3-dihydro-benzofuran-3-yl}-acetic acid] — 17-fold higher, 428 nM
- Cc1ccccc1-c1cccc2c1CC[C@H]2Oc1ccc2c(c1)OC[C@H]2CC(=O)O [Example 62, {(S)-6-[(R)-4-o-Tolyl-indan-1-yloxy]-2,3-dihydro-benzofuran-3-yl}-acetic acid] — 2.1-fold higher, 52 nM
